This note sets out measurements from patent US11998534B2, “GPX4 inhibitor in combination with anticancer agent for treating proliferative disease” (Eubulus Biotherapeutics Inc., priority 2020, dated 2024).

Where two headings read alike, the source gives them in different places. Peptide text beside a SMILES is read from it. * marks the point of attachment. Cbz = O=C(OCc1ccccc1)*; CH2F = FC*

Holding throughout (assay type): cell-based
In test [1] the test system is cancerous cell lines (e.g., HT-29, Hub-7, or OVCAR-8). As to the kind of experiment: Cell proliferation assay (CELL-TITER GLO cell viability), Table 1. The note with it: 24 h incubation, cell line not stated. As to the method:
(§1) The activity of a combination of a GPX4 inhibitor (e.g., compound A1, A2, or A3) and a tyrosine kinase inhibitor (e.g., neratinib, regorafenib, or sorafenib) was determined in a cell proliferation assay using cancerous cell lines (e.g., HT-29 (colorectal adenocarcinoma), Hub-7 (hepatocellular carcinoma), or OVCAR-8 (ovarian adenocarcinoma)). Cells of each cell line were seeded in a 96-well tissue culture plate. After incubated overnight, a compound or a combination was added at predetermined concentration(s). After the cells were incubated for 24 h, cell viability was determined using a CELL-TITER GLO® assay. The CELL-TITER GLO® reagent (50 μL) was added to each well and the luminescence was measured by a multimode microplate reader after a brief period of shaking. EC50 values were determined from dose response curves.

The test system of a further test is Huh-7 cells. As to the kind of experiment: Cell viability assay with ferroptosis/apoptosis inhibitor rescue, Huh-7 cells (FIGS. 1-3). The note with it: GPX4 inhibitor 100 nM + sorafenib C1 3 μM. As to the method:
as §1

The test system of another test is HT-29 cells. As to the kind of experiment: Cell viability assay with ferroptosis/apoptosis inhibitor rescue, HT-29 cells (FIGS. 4-6). Conditions: GPX4 inhibitor 100 nM + sorafenib C1 3 μM. As to the method:
as §1

Setting [2] is: GPX4 inhibitor alone, read-out: Inhibition of Cell Proliferation, Monotherapy (EC50).
Where [3] appears, read: GPX4 inhibitor in combination with C2 (10 μM), read-out: Inhibition of Cell Proliferation, Combination +C2 (10 μM) (EC50).
[4] abbreviates: GPX4 inhibitor in combination with C3 (3 μM), read-out: Inhibition of Cell Proliferation, Combination +C3 (3 μM) (EC50).

In the case of `COC(=O)c1ccc(C2c3[nH]c4ccccc4c3C[C@H](C(=O)OC)N2C(=O)CCl)cc1` (stereo partly drawn) [A1, methyl (3R)-2-(2-chloroacetyl)-2,3,4,9-tetrahydro-1-(4-(methoxycarbonyl)phenyl)-1H-pyrido[3,4-b]indole-3-carboxylate], the EC50 turned out to be 8000 nM in test [1] (setting [2]), 57 nM in test [1] (setting [3]) and 970 nM in test [1] (setting [4]).

For the compound `C#CC(=O)N1C(c2ccc(C(=O)OC)cc2)c2[nH]c3ccccc3c2C[C@@H]1CO` (stereo partly drawn) [A2, methyl 4-((3R)-3-(hydroxymethyl)-2-propioloyl-2,3,4,9-tetrahydro-1H-pyrido[3,4-b]indol-1-yl)benzoate], the EC50 in test [1] (setting [2]) amounted to 22500 nM; in test [1] (setting [3]), 97 nM; in test [1] (setting [4]), 1300 nM.

As to `C#CC(=O)N(c1ccc(OC)c(Cl)c1)C(C(=O)NC(C)(C)C)c1ccc(N)cc1` (stereo not shown) [A3, N-(1-(4-aminophenyl)-2-(tert-butylamino)-2-oxoethyl)-N-(3-chloro-4-methoxyphenyl)propiolamide], the results for the EC50 in test [1] (setting [2]), in test [1] (setting [3]) and in test [1] (setting [4]) were 5700 nM, 207 nM and 1800 nM, respectively.

With `CCOC(=O)c1ccc(NC2CCCCC2)c(N)c1` [Fer-1, ferrostatin-1], the “Rescue from cell death induced by GPX4 inhibitor A1, A2, or A3 in combination with sorafenib C1” value in the test on Huh-7 cells and in the test on HT-29 cells was “able to rescue” throughout.

As to `COC(=O)C[C@H](NC(=O)[C@H](C)NC(=O)[C@@H](NC(=O)OCc1ccccc1)C(C)C)C(=O)CF` [ZVAD, Z-VAD-FMK] (Cbz-Val-Ala-Asp(OMe)-CH2F), the “Rescue from cell death induced by GPX4 inhibitor A1, A2, or A3 in combination with sorafenib C1” value with Huh-7 cells and with HT-29 cells was “could not” each time.
